For assay [1], the target named is T1, AF9 (Homo sapiens, UniProt P42568).
T1 sequence (P42568 497-568): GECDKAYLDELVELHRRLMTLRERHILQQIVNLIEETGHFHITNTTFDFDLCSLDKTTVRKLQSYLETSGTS
Description: Optimized competitive FP binding assay (N-Flu-DOT1L / AF9). Further details: the recombinant GB1-AF9 protein (residues 497-568); made in house; host or cells: Escherichia coli BL21 (DE3).

The target in assay [2] is T1, AF9. Description: Solution competitive SPR assay of peptides, AF9-DOT1L interaction. The class given is binding. The arrangement: against AF9(497-568) and ENL (489-559) proteins running different tested concentrations over CM5 chip; GB1 (pGB1-LIC vector); made in house; host or cells: Escherichia coli BL21 (DE3). Particulars: read-out: IC50 against AF9 (block PPI DOT1L/AF9). The procedure:
(§1) Solution competitive SPR based assay was performed to determine the IC50 values of DOT1L peptides. […] Response units (RU) were measured at 15 seconds in the dissociation phase and the specific binding was calculated by subtracting the control surface (Fcl) signal from the surfaces with immobilized Mocr-DOT1L. IC50 values were determined by non-linear least squares analysis using Graph Pad Prism 5.0 software.
For orientation: SPR reads the build-up and loss of mass on a sensor chip optically.

The target of assay [3] is T2, ENL (Homo sapiens, UniProt Q03111).
T2 construct: against AF9(497-568) and ENL (489-559) proteins running different tested concentrations over CM5 chip; MBP (pMSCG9-LIC vector); made in house; host or cells: Escherichia coli BL21 (DE3)
T2 sequence (Q03111 489-559): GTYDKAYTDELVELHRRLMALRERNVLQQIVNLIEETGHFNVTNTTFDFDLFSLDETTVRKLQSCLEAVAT
Description: Solution competitive SPR assay of peptides, ENL-DOT1L interaction. Type of assay: binding. As to conditions: read-out: IC50 against ENL (block PPI DOT1L/ENL). On the procedure: as §1

In assay [4] the target is T3, Flag-DOT1L and Myc-CxxC-AF9 interaction (Homo sapiens, UniProt P42568+Q03164).
T3 construct: expressed in transfected cells; host or cells: HEK 293
Put plainly: Co-immunoprecipitation in HEK 293 cell lysate. The class given is binding. Particulars: HEK 293 whole cell lysate pre-incubated with peptide. On the procedure: (§2) To assess whether DOT1L 10-mer peptide can bind and block the interaction between full length DOT1L and MLL-fusion proteins HEK 293 cells were transiently co-transfected ith Flag-tagged human DOT1L protein and Myc-tagged CxxC-AF9 protein. The whole cell lysate was pre-incubated with different concentrations of DOT1L 10-mer peptide and co-immunoprecipitation (co-IP) experiments were performed. […] To further probe and confirm the cellular target for DOT1L 10-mer peptide, a biotinylated DOT1L 10-mer peptide was synthesized. To determine the binding affinity of this labeled peptide FP competitive based assay was used and tested together with corresponding unlabeled DOT1L 10 mer peptide.
Cell Culture, Transfections, and Immunoprecipitation—HEK293 cells were plated in 100 mm culture dishes and cultured in Dulbecco's modified Eagle's medium (DMEM) supplemented with 10% FBS and antibiotics. Co-transfection with FLAG-DOTL and Myc-CxxC-AF9 was performed using Lipofectamine 2000 (Invitrogen). […] After incubation, the beads were washed extensively, boiled in SDS loading buffer and analyzed by western blotting using mouse monoclonal anti-FLAG M2 (Sigma-Aldrich) and goat monoclonal anti-Myc tag (Abcam) antibody.

Assay [5] addresses T4, MBP-ENL (489-559) (Homo sapiens, UniProt Q03111).
T4 construct: MBP-ENL (489-559) was dialysed extensively; made in house; host or cells: Escherichia coli BL21 (DE3)
T4 sequence (Q03111 489-559): T2 sequence (Q03111 489-559)
Description: Isothermal titration calorimetry with MBP-ENL. As to conditions: ITC, MBP-tagged ENL, 1:1 stoichiometry; read-out: KD to ENL protein. The class given is binding. The procedure: (§3) Isothermal titration calorimetry—ITC was carried out using a Nano-ITC Micro Calorimeter (TA Instruments) at 20° C. MBP-ENL (489-559) was dialysed extensively against 50 mM Na2HPO4, (pH 7.5) and 100 mM NaCl, and 80 μM was used for titration studies of DOT1L 16-mer and 10-mer peptides, and 110 μM for DOT1L 7-mer titration. Tested peptides dissolved in the same buffer at 400 μM (DOT1L 16-mer and 10-mer) or 500 μM (DOT1L 7-mer) were tested by injecting 2 μl aliquots into the protein sample, at time intervals of […], to ensure that the titration peak returned to the baseline. The ITC data were analyzed by NanoAnalyze software package using a one site-binding model.
For orientation: In ITC the heat of successive injections is recorded.

Assay [6] concerns the target MBP tag (Escherichia coli, UniProt P0AEX9). Description: Isothermal titration calorimetry with MBP tag only. The class given is binding. As to conditions: ITC. On the procedure: FIG. 4 describes isothermal titration calorimetry (ITC) of MBP tag only (80 μM) with a solution of DOT1L 16-mer (400 μM). The raw data are shown in the upper panel, and the integrated heat data are shown in the lower panel.
as §3

Assay [7] has as its system H3K79 methylation. Put plainly: Global H3K79 methylation in MLL-AF9 transformed cells. The class given is cell-based, mouse. Particulars: 6 days treatment of MLL-AF9 transformed cells. From the text:
FIG. 23 presents cell growth curves of A) MLL-AF9 and B) Hoxa9/Meis1 transformed mouse cells and C) adult LSKs after treatment with 38. D) H3K79 methylation after 6 days treatment with 38 and EPZ004777 DOT1L inhibitor (see, e.g., Daigle, et al., Cancer Cell 20, 53-65 (2011)).
This example involves the assessment of cellular effects of compound 38. […] Compound 38 inhibited growth of MLL-AF9 cells in a dose-dependent manner (FIG. 23A), with cell growth inhibition starting after 4 days of treatment. […] The hypothesis predicts that compounds that can block the DOT1L recruitment, but not its catalytic activity, will not affect normal hematopoiesis, as well as the global level of H3K79 methylation. To test this hypothesis, the toxicity of compound 38 was tested on purified LSK (lin-sca-1+ckit+) progenitors from adult wild type mice (FIG. 23C).

Assay [8] has as its target T5, Myc-CxxC-AF9 (Homo sapiens, UniProt P42568+Q03164).
T5 construct: expressed in transfected cells; host or cells: HEK293
Put plainly: Streptavidin-biotin pull-down in HEK 293 cell lysate. Type of assay: binding. Particulars: HEK 293 cell lysates. On the procedure: as §2
Pull-down assay—HEK293 cells transfected with Myc-CxxC-AF9 were lysed in BC-300 lysis buffer in a same way as the immunoprecipitation experiment. The supernatant was pre-cleared for 2 h in streptavidin agarose beads (Thermal Scientific). The pre-cleared lysates were incubated with different concentrations of biotin-labeled DOT1L 10 mer peptide at 4° C. overnight. The next day, the cell lysate were incubated with streptavidin agarose at 4° C. for 2 h. After extensive washing the beads with the BC-300 lysis buffer without NP-40, the pull down samples were applied to SDS-PAGE electrophoresis and pull-down Myc-CxxC-AF9 protein was probed with goat monoclonal anti-Myc tag antibody (Abcam).

Where a SMILES comes first, the peptide text is derived from it. Where no end group is shown, it is not given here.

T3 sequence (Q03164+P42568 fused): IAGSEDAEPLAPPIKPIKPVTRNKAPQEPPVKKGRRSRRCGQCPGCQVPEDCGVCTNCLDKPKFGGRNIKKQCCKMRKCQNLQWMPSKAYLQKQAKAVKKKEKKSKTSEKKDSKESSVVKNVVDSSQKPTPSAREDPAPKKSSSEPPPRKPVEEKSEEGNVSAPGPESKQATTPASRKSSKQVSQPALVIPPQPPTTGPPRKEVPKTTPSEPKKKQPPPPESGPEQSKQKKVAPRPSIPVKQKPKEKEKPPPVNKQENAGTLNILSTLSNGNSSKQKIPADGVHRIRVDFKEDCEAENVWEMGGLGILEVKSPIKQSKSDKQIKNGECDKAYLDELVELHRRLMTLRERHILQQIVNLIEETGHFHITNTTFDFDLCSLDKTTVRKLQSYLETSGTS
T5 sequence (Q03164+P42568 fused): as above

One may read the Ki as a measure of affinity in units of concentration, obtained from inhibition or displacement. What is called Kd is the free concentration of one partner at which half of the binding sites on the other are occupied at equilibrium, for simple one-to-one binding. As for `CC[C@H](C)[C@H](NC(=O)[C@@H]1CCCN1C(=O)[C@H](CC(C)C)NC(C)=O)C(=O)N[C@@H](CO)C(=O)N[C@H](C(=O)N1CCC[C@H]1C(=O)N[C@@H](CC(C)C)C(=O)N[C@@H](CO)C(=O)N[C@H](C(=O)N[C@H](C(N)=O)C(C)C)[C@@H](C)O)[C@@H](C)CC` [DOT1L 10mer] (Ac-LPISIPLSTV-NH2), the Ki in assay [1] stood at 68 ± 15 nM. Moreover, the values for the IC50 in assay [2] and in assay [3] were 490 nM and 1340 nM, respectively. In addition, the “disruption of DOT1L / CxxC-AF9 interaction (co-IP)” value in assay [4] is “blocks the interaction of cellular DOT1L with CxxC-AF9 in a dose dependent manner”. The Kd in assay [5] is 1100 nM.

On to `CC[C@H](C)[C@H](NC(=O)[C@@H]1CCCN1C(=O)[C@H](CC(C)C)NC(C)=O)C(=O)N[C@@H](CO)C(=O)N[C@H](C(=O)N1CCC[C@H]1C(=O)N[C@@H](CC(C)C)C(=O)N[C@@H](CO)C(=O)N[C@H](C(=O)N[C@H](C(=O)N[C@@H](CCC(N)=O)C(=O)N1CCC[C@H]1C(=O)N[C@@H](CC(N)=O)C(=O)N[C@@H](CCCCN)C(=O)N[C@@H](CC(C)C)C(=O)N1CCC[C@H]1C(N)=O)C(C)C)[C@@H](C)O)[C@@H](C)CC` [DOT1L 16 mer] (Ac-LPISIPLSTVQPNKLP-NH2), for which, in assay [1], the Ki was 80 nM. Further, the “binding to the MBP tag only” value in assay [6] is “did not show any binding”. The values for the IC50 in assay [2] and in assay [3] were 320 nM and 1560 nM, respectively. In assay [5], the Kd came to 900 nM.

As to `CC(C)N(CCCNC(=O)Nc1ccc(C(C)(C)C)cc1)C[C@H]1O[C@@H](n2ccc3c(N)ncnc32)[C@H](O)[C@@H]1O` [EPZ004777, reference compound], the “global H3K79 methylation level” value in assay [7] is listed as “decreased global level of H3K79 methylation”.

For the compound “biotinylated DOT1L 10-mer peptide: DOT1L 10-mer peptide with N-terminal biotin group (LPISIPLSTV-NH2; not fully specified (N-terminus); also: N-terminal biotin coupled to lysine and two β-alanine spacer, order not given here)”, the “binding to cellular CxxC-AF9 (pull-down)” value in assay [8] was “recognizes and binds to the cellular CxxC-AF9 protein in a dose dependent manner”.

The values above are taken from patent US9862746B2, “Compositions and methods relating to hindering DOT1L recruitment by MLL-fusion proteins” (The Regents of the University of Michigan, priority 2013, dated 2018).
